Source: a melting point compilation (Tetko et al.; mined from patent text by program, amines drawn as free bases though some values may be those of a salt)

`COc1ccc(C=Cc2oc3ccc(C#N)cc3c2C(C)=O)cc1` gave a melting point of 190 to 191 °C. With `Nc1ccc(Oc2ccc(Oc3ccc(S(=O)(=O)c4ccc(Oc5ccc(Oc6ccc(N)cc6)cc5)cc4)cc3)cc2)cc1` the melting point was 212 to 214 °C. For `CC(=O)Nc1cc(C(C)=O)ccc1OCCCN1CCC(c2noc3cc(F)ccc23)CC1`, the melting point was 108 to 110 °C. `CC1(C)CC(=O)OC(NCCCCN2CCN(c3ncccn3)CC2)N1` (configuration not stated) showed a melting point of 124 to 126 °C. In the case of `Clc1ccc2c(Nc3ccccc3)ncnc2c1`, the melting point is reported as 215 to 217 °C. With `CCCCN1CCCC1=NC(=O)Nc1c(C)cccc1C` the melting point was 93 to 95 °C. Molecule `CC(=O)SCCC(=O)N1c2ccccc2CCC1C(=O)O` (configuration not stated) has a melting point of 89 to 91 °C. With `N#Cc1ccc(OCc2ccsc2)cc1OC(C(=O)O)c1ccccc1Br` (racemic) the melting point was 89 to 98 °C. For `O=C1c2cc(NCCO)ccc2OC12CC2`, the melting point was 74 to 75 °C. Work on `CCOC(C)OC1CCC2(C)C3=C(CCC2C1(C)C)C1=CCC(C(C)OCc2ccccc2)C1(C)CC3` (configuration not stated) yielded a melting point of 138 to 143 °C. With `COc1cc(C(=O)CCCc2ccccc2)ccc1OCc1ccccc1` the melting point was 81 to 82 °C. Molecule `CCN(CC)C(=S)c1c(C)cccc1[Si](C)(C)C` has a melting point of 82 to 83 °C. `Nc1c(Cl)cc(C2=NNC(=O)Cc3cc4c(cc32)OCO4)cc1Cl` showed a melting point of 149 to 151 °C. Work on `O=C(c1ccccc1F)c1cc(Br)ccc1NC(=O)C(F)(F)F` yielded a melting point of 132 °C. `Cc1ccccc1C1(n2ccnc2)c2ccccc2-c2sccc21` (configuration not stated) showed a melting point of 75 °C. In the case of `Cc1ccccc1-c1nc(N)ncc1-c1ccc(=O)n(C)n1`, the melting point is reported as 229 °C. `O=c1[nH]c(N2CCOCC2)nc2c(N3CCCCCC3)nc(N3CCOCC3)cc12` showed a melting point of 240 °C. With `CC[C@H]1[C@@H](O)C(F)(F)C(=O)N1c1ccc(C#N)c(Cl)c1` the melting point was 137 to 140 °C. Work on `C=Cc1c[nH]c(=O)nc1N` yielded a melting point greater than 290 °C. With `O=C(C1CCCCC1)N1CC(=S)N2CCCc3ccccc3C2C1` (configuration not stated) the melting point was 150 to 151 °C. Molecule `COc1c(F)cc2c(O)c(C(=O)NCc3ccc(Cl)cc3)cnc2c1OC` has a melting point of 228 to 229 °C. In the case of `c1cc(P(CCP(c2ccncc2)c2ccncc2)c2ccncc2)ccn1`, the melting point is reported as 183 to 185 °C. For `Cc1nnc2n1-c1ccccc1C(c1ccccc1Cl)OC2C` (configuration not stated), the melting point was 176 to 178 °C. `Cn1c(=O)c2c(ncn2CC(O)Cc2noc(-c3ccccc3)n2)n(C)c1=O` (configuration not stated) gave a melting point of 179 to 180 °C. `COC(=O)COc1cc2ccccc2c2c1c(C(=O)C(N)=O)c(C)n2CC1CCCCC1` showed a melting point of 156 to 158 °C. For `CCOC(=O)NN=C(c1ccc(Cl)cc1)c1ccc(OC(=O)CC)cc1`, the melting point was 120 to 146 °C. In the case of `CCCCNc1cc(C(=O)O)cc(S(N)(=O)=O)c1Nc1ccc(N)cc1`, the melting point is reported as 210 °C. For `CC(C)(C)c1ccc(CNC(=O)NCc2ccc(NS(C)(=O)=O)c(F)c2)cc1`, the melting point was 95 °C. Molecule `Cc1cc(OC(=O)c2ccccc2)c2ccccc2c1O` has a melting point of 172 to 174 °C. In the case of `O=[N+]([O-])N=C1NCCN1Cc1cc(Br)no1`, the melting point is reported as 149 °C. In the case of `CCOc1ccc(-c2ccc(=O)[nH]n2)cc1OC`, the melting point is reported as 172 °C. `NCc1ccn(C2=CC3=C(CC2)CCc2[nH]c(=O)c(=O)n(O)c23)c1` gave a melting point greater than 250 °C. Work on `CCCCCC1CCC2c3ccc(OCC)c(F)c3OC2C1` (configuration not stated) yielded a melting point of 118 °C. With `CN(c1cccc2cc(C3=NCC(C)(CCO)S3)[nH]c12)S(=O)(=O)c1cccs1` (configuration not stated) the melting point was 149 to 150 °C. `O=C(Nc1nc2ccc(Sc3cnc4ncccn34)cc2s1)c1ccccc1` showed a melting point greater than 260 °C. For `CC(C)(C)NNC(=O)C(C)(C)C`, the melting point was 97 to 105 °C. Molecule `Cc1nc2c3c(c(C(N)=O)cc2n1C)CCC1(Cc2ccccc2C1)N3` has a melting point of 272 to 273 °C. Molecule `CCOc1cc(C(=CC#N)c2ccc(OC)c(F)c2)ccc1OC` has a melting point of 122 to 124 °C. `CCOC(=O)/C=C/c1ccc(O)cc1Oc1ncc(C(F)(F)F)cc1Cl` gave a melting point of 124 °C. In the case of `Cc1nc2cc(N)ccc2c(=O)n1C1CCC(=O)NC1=O` (configuration not stated), the melting point is reported as 305 to 307 °C. Molecule `O=C(O)C(Cl)=Cc1cc(-n2c(=O)cc(C(F)(F)F)[nH]c2=O)ccc1Cl` has a melting point greater than 250 °C. With `O=C(O[C@@H]1CC[C@@H](c2cccc(F)c2F)Cc2ccc(Cl)nc21)N1CCC(n2c(=O)[nH]c3ncccc32)CC1` the melting point was 248 °C. In the case of `Cc1ccccc1C(=O)Nc1ccc(C(=O)N2CCCC(COS(C)(=O)=O)c3ccccc32)cc1` (configuration not stated), the melting point is reported as 189 to 190 °C. In the case of `Cn1cnc2nc(C#Cc3ccccc3)nn2c1=S`, the melting point is reported as 290 to 295 °C. For `CC(C)(C)Nc1nc2ccc(Cl)cc2c2nc(-c3ccco3)nn12`, the melting point was greater than 330 °C. In the case of `CC(=O)c1c(C)[nH]c(-c2ccc(F)cc2)c1N`, the melting point is reported as 211 to 212 °C. For `COC12CC(CCCO)CN(C)C1Cc1c[nH]c3cccc2c13` (configuration not stated), the melting point was 190 to 195 °C. Work on `COc1nc(N)nc(Cl)c1C1=NCCN1` yielded a melting point of 212 °C. Work on `Cc1nc(Cl)c2cc(C)oc2n1` yielded a melting point of 47.6 to 48.1 °C. In the case of `COc1ccc(C2Nc3cc(OC)c(OC)cc3C(C)=[N+]2[O-])cc1` (configuration not stated), the melting point is reported as 161 to 163 °C. `CCCCCCCCCCCCCCCCCC[N+](=O)[O-]` gave a melting point of 47 to 50 °C. For `CCOC(=O)c1cncnc1Nc1ccccc1NC`, the melting point was 153 to 155 °C. `O=C1N[C@H](Cc2ccc(F)cc2)[C@H](c2ccc(F)cc2)O1` (racemic) showed a melting point of 197 to 198 °C. For `COc1ccccc1-n1c(CCl)nc2ccccc2c1=O`, the melting point was 193 to 194 °C. With `CCOC(=O)c1cn(C2COC2)c2c(F)c(F)cc(F)c2c1=O` the melting point was 169 to 171 °C. Work on `COC(=O)c1ccc(NC(=O)c2ccccc2C)nc1` yielded a melting point of 167 to 169 °C. With `NN(Cc1ccccc1[N+](=O)[O-])c1ccccc1` the melting point was 67 to 69 °C. Molecule `O=C(Nc1ccc(F)cc1)NC1CCN(C(=O)c2cccnc2)CC1` has a melting point of 118 to 122 °C. Molecule `COc1ccc(Oc2ccc(C(F)(F)F)cc2Cl)cc1[N+](=O)[O-]` has a melting point of 90 to 92 °C. For `CCCCCCCc1ccc(C(=O)Nc2ccc3oc(Nc4ccc(CC)cc4)nc3c2)cc1`, the melting point was 245 to 246 °C. For `Cc1ccc(F)c(-n2cnc(-c3cnc4[nH]cc(C(=O)N[C@@H](C)C(C)(C)C)c4n3)c2)c1`, the melting point was 331 to 332 °C. `Cc1cc(OC(C)c2ccccc2)ccc1C(C)N(O)C(N)=O` (configuration not stated) gave a melting point of 157 to 158 °C. `CCCCCNC(=O)N(C)c1cccc(-c2ccc(C=C(C)C(=O)O)cc2OCCCC)c1` gave a melting point of 87 to 89 °C. `CN(C)c1ccc(C(=O)C#Cc2ccncc2)cc1` gave a melting point of 143 to 145 °C. `COC(=O)C(C)(C)OCc1cc2cc(Cl)ccc2n1S(=O)(=O)c1cc(OC)ccc1OC` gave a melting point of 132 to 134 °C. In the case of `CCn1cc(C(=O)O)c(=O)c2cc(F)c(N3CCNC(CF)C3)cc21` (configuration not stated), the melting point is reported as 177 to 180 °C. In the case of `CC1(C)C(=O)N(CC#CI)C(=O)N1Cc1ccccc1`, the melting point is reported as 109 to 112 °C. Work on `ClCc1c(Cl)c(Cl)c(Cl)c(Cl)c1CCl` yielded a melting point of 83 to 84 °C. Work on `NS(=O)(=O)c1cccc(-c2cn(-c3nc(-c4ccc(C(F)(F)F)cc4)cc(C(F)(F)F)n3)cn2)c1` yielded a melting point of 198 °C. Work on `Cc1nccc2c3ccc(OCC4CCCCC4)cc3n(CC3CCCCC3)c12` yielded a melting point of 152 °C. With `C[C@@H]1CNC(=O)c2cc3c(Cl)cccc3n21` the melting point was 180 to 184 °C. Work on `CNS(=O)(=O)c1ccc(C2=NC(C)(C)Cc3cc(OC)c4c(c32)CC(C)(C)O4)cc1` yielded a melting point of 146 to 148 °C. In the case of `COc1cc(C)c(OCCCC(C)(C)C(=O)O)cc1C`, the melting point is reported as 85 to 86 °C. Work on `CC(C)(C)OC(=O)NC1CCN(CC23CC(c4ccccc42)c2ccc(Cl)cc23)CC1` (configuration not stated) yielded a melting point of 76.5 to 80 °C. For `COc1ccc2oc(C(=O)CBr)cc2c1`, the melting point was 86 to 87 °C. `C=C(COC(=O)Oc1ccc([N+](=O)[O-])cc1)C(=O)OCC` gave a melting point of 42 to 43 °C. With `CCCc1c(O)c(O)c(C(=O)O)c2ccc(C)cc12` the melting point was 159 to 160 °C. In the case of `CC(C)n1cc(-c2nc(C(N)=O)c(N)nc2-c2cc(F)cc(F)c2)ccc1=O`, the melting point is reported as 249 °C. `COC(=O)COc1cc(C)c(SCc2sc(-c3ccc(C(F)(F)F)cc3)nc2C)c(C)c1` gave a melting point of 113 °C. Work on `Oc1cc(Cl)c(-n2cnnn2)cc1Oc1ccc(Cl)cc1Cl` yielded a melting point of 147 to 148 °C. Molecule `COC(=O)[C@@H](NC(=O)OC(C)(C)C)[C@@H](S)c1ccccc1` has a melting point of 76 to 77 °C. `NC(=O)CCCCCCn1cccc1` gave a melting point of 228 to 233 °C. With `COC(=O)c1ccccc1Oc1ccc(C)cc1[N+](=O)[O-]` the melting point was 71 to 73 °C. `COc1ccc(CCCC(O)CCC(=O)O)cc1` (configuration not stated) gave a melting point of 67 to 68 °C. Molecule `CN(C)c1cccc2c1c(=O)n(C)c1c(-c3nc(C4CC4)no3)ncn21` has a melting point of 214 °C. Work on `O=C1c2ccc(F)cc2C(=O)N1c1ccc(Cl)cc1F` yielded a melting point of 122 to 123 °C. Molecule `Cc1c(NC(=O)c2ccc(-c3ccc4c(c3)CCO4)cc2)ccc2cc(CN3CCCC3)cnc12` has a melting point of 176 to 177 °C. For `Cc1nc2[nH]c(=O)[nH]c2cc1-c1ccc(N)cc1`, the melting point was 277 to 283 °C. `Cc1cc(C)n(CC2CC3c4cccc5[nH]cc(c45)CC3N(C)C2)n1` (configuration not stated) showed a melting point of 187 to 190 °C. For `OC(CNCCc1ccsc1)c1ccccc1` (configuration not stated), the melting point was 75 °C. `CCCCCCCCCCCCCCCC(=O)Nc1ccc(C(=O)O)cc1C` showed a melting point of 194 to 196 °C. With `N#CCc1ccc(Nc2nc(OCC3CCCCC3)c3[nH]cnc3n2)cc1` the melting point was 191 to 192 °C. In the case of `COC(=O)c1cc(N2CCCC2)c(Oc2ccccc2)c(S(=O)(=O)Cl)c1`, the melting point is reported as 108 to 112 °C. Molecule `CN(C)c1ccc(NC(=O)N(C[C@H]2CCC[C@H](CN(C(=O)Nc3ccc(N(C)C)cc3)C3CCCC3)C2)C2CCCC2)cc1` (relative stereo) has a melting point of 142 to 147 °C. `CN(Cc1ccc(F)cc1)C1CCN(c2ccc(C#N)cc2)CC1` gave a melting point of 100 to 101 °C. For `CCOC(=O)c1cn(NC=O)c2c(OCc3ccccc3)c(F)c(F)cc2c1=O`, the melting point was 188 to 190 °C. `COc1ccc(F)c2c(O)c(C=O)ccc12` gave a melting point of 156 to 158 °C. Molecule `CCCCCCCCC(SCCCCCC)C(=O)Nc1c(Cl)cc(NC(C)=O)c2ncc(C)cc12` (configuration not stated) has a melting point of 140 to 141 °C. `CCC(=O)NCC1CC12c1cc(OC)ccc1-c1ccc(OC)cc12` (configuration not stated) showed a melting point of 145 to 147 °C. With `N#CCCNC(=O)C1=CC(CF)(CF)Oc2ccc(Cl)cc21` the melting point was 134 to 136 °C. `CC(C)[C@H]1CC[C@H](O)C=C1S(=O)(=O)c1ccccc1` gave a melting point of 105 °C. `COC(=O)c1cc(-c2ccc(Cl)cc2)n(-c2ccc(Cl)cc2Cl)n1` gave a melting point of 167 °C.
